Measurements taken from the NIST ThermoML archive (doi:10.1021/je900903w).

Experiment: mn = molality of the nth substance listed, in mol/kg
Settings: 101 kPa, Liquid; for molar conductivity: Alternating current cell with electrodes

O=CO [formic acid] + O
Settings | mass density, 298.15 K [kg/m3] | molar conductivity, 278.15 K [S·m2/mol] | molar conductivity, 283.15 K [S·m2/mol] | molar conductivity, 288.15 K [S·m2/mol] | molar conductivity, 293.15 K [S·m2/mol] | molar conductivity, 298.15 K [S·m2/mol] | molar conductivity, 303.15 K [S·m2/mol] | molar conductivity, 308.15 K [S·m2/mol] | molar conductivity, 313.15 K [S·m2/mol]
m1 = 0.0002709 | – | 0.0149 | 0.0165 | 0.018 | 0.01947 | 0.02084 | 0.02214 | 0.0233 | 0.0242
m1 = 0.0005657 | – | 0.0113 | 0.0125 | 0.0138 | 0.0149 | 0.0161 | 0.0171 | 0.018 | 0.0189
m1 = 0.0008298 | – | 0.00971 | 0.0108 | 0.0119 | 0.0129 | 0.0139 | 0.0149 | 0.0157 | 0.0164
m1 = 0.001094 | – | 0.00867 | 0.00965 | 0.0106 | 0.0115 | 0.0124 | 0.0133 | 0.0141 | 0.0147
m1 = 0.001442 | – | 0.00773 | 0.00862 | 0.00948 | 0.0103 | 0.0111 | 0.0119 | 0.0126 | 0.0132
m1 = 0.001825 | – | 0.0069 | 0.00768 | 0.00845 | 0.0092 | 0.00991 | 0.0106 | 0.0112 | 0.0117
m1 = 0.002222 | – | 0.00636 | 0.00709 | 0.00781 | 0.0085 | 0.00917 | 0.00981 | 0.0104 | 0.0109
m1 = 0.002648 | – | 0.00593 | 0.00661 | 0.00727 | 0.0079 | 0.00851 | 0.00907 | 0.00959 | 0.0101
m1 = 0.003208 | – | 0.00548 | 0.00611 | 0.00673 | 0.00733 | 0.00791 | 0.00845 | 0.00894 | 0.00939
m1 = 0.003957 | – | 0.00505 | 0.00563 | 0.0062 | 0.00675 | 0.00729 | 0.00779 | 0.00824 | 0.00866
m1 = 0.004898 | 997.113 | 0.00463 | 0.00517 | 0.0057 | 0.00621 | 0.0067 | 0.00717 | 0.0076 | 0.00799
m1 = 0.1291 | 998.53 | – | – | – | – | – | – | – | –

O=C[O-].[K+] [potassium formate] + O
Settings | mass density, 298.15 K [kg/m3] | molar conductivity, 278.15 K [S·m2/mol] | molar conductivity, 283.15 K [S·m2/mol] | molar conductivity, 288.15 K [S·m2/mol] | molar conductivity, 293.15 K [S·m2/mol] | molar conductivity, 298.15 K [S·m2/mol] | molar conductivity, 303.15 K [S·m2/mol] | molar conductivity, 308.15 K [S·m2/mol] | molar conductivity, 313.15 K [S·m2/mol]
m1 = 0.0003498 | – | 0.007906 | 0.009019 | 0.01018 | 0.01138 | 0.0126 | 0.01387 | 0.01516 | 0.01649
m1 = 0.0006599 | – | 0.007826 | 0.008931 | 0.01008 | 0.01128 | 0.01251 | 0.01377 | 0.01502 | 0.01632
m1 = 0.001026 | – | 0.007789 | 0.008888 | 0.01003 | 0.01121 | 0.01245 | 0.01371 | 0.015 | 0.01628
m1 = 0.001412 | – | 0.007752 | 0.008844 | 0.009984 | 0.01117 | 0.01239 | 0.01365 | 0.01494 | 0.01622
m1 = 0.001766 | – | 0.007701 | 0.008787 | 0.009919 | 0.0111 | 0.01231 | 0.01356 | 0.01485 | 0.01614
m1 = 0.002217 | – | 0.007674 | 0.008755 | 0.009886 | 0.01106 | 0.01226 | 0.01351 | 0.0148 | 0.01608
m1 = 0.002823 | – | 0.007653 | 0.008729 | 0.009852 | 0.01102 | 0.01223 | 0.01348 | 0.01476 | 0.01606
m1 = 0.003432 | – | 0.007632 | 0.008706 | 0.009826 | 0.01099 | 0.0122 | 0.01344 | 0.01472 | 0.01601
m1 = 0.00406 | – | 0.007611 | 0.008682 | 0.0098 | 0.01097 | 0.01217 | 0.01341 | 0.01468 | 0.01596
m1 = 0.004815 | – | 0.007596 | 0.008665 | 0.00978 | 0.01094 | 0.01214 | 0.01338 | 0.01465 | 0.01593
m1 = 0.005831 | 997.346 | 0.007573 | 0.008637 | 0.009748 | 0.01091 | 0.0121 | 0.01333 | 0.0146 | 0.01587
m1 = 0.1219 | 1002.91 | – | – | – | – | – | – | – | –

O=C[O-].[Na+] [sodium methanoate] + O
Settings | mass density, 298.15 K [kg/m3] | molar conductivity, 278.15 K [S·m2/mol] | molar conductivity, 283.15 K [S·m2/mol] | molar conductivity, 288.15 K [S·m2/mol] | molar conductivity, 293.15 K [S·m2/mol] | molar conductivity, 298.15 K [S·m2/mol] | molar conductivity, 303.15 K [S·m2/mol] | molar conductivity, 308.15 K [S·m2/mol] | molar conductivity, 313.15 K [S·m2/mol]
m1 = 0.0002873 | – | 0.00626 | 0.007191 | 0.008167 | 0.009185 | 0.01025 | 0.01134 | 0.01247 | 0.01358
m1 = 0.0003841 | – | 0.006215 | 0.007142 | 0.00813 | 0.009157 | 0.01022 | 0.01133 | 0.01246 | 0.01356
m1 = 0.0005247 | – | 0.006187 | 0.007111 | 0.008093 | 0.009118 | 0.01018 | 0.01128 | 0.01243 | 0.01351
m1 = 0.0005682 | – | 0.006178 | 0.007106 | 0.008083 | 0.009103 | 0.01017 | 0.01126 | 0.01238 | 0.01348
m1 = 0.0006608 | – | 0.006158 | 0.007081 | 0.008058 | 0.009078 | 0.01014 | 0.01124 | 0.01237 | 0.01347
m1 = 0.0008201 | – | 0.006134 | 0.007053 | 0.008027 | 0.009042 | 0.0101 | 0.0112 | 0.01234 | 0.01345
m1 = 0.0008629 | – | 0.006107 | 0.007049 | 0.008019 | 0.009031 | 0.01009 | 0.01118 | 0.01231 | 0.01344
m1 = 0.0009581 | – | 0.006095 | 0.007021 | 0.007988 | 0.009 | 0.01005 | 0.01115 | 0.01228 | 0.01341
m1 = 0.001119 | – | 0.006088 | 0.007002 | 0.007965 | 0.008975 | 0.01002 | 0.01111 | 0.01224 | 0.0134
m1 = 0.001188 | – | 0.006075 | 0.007 | 0.007964 | 0.008973 | 0.01002 | 0.01111 | 0.01224 | 0.01338
m1 = 0.001257 | – | 0.006054 | 0.006986 | 0.007948 | 0.008957 | 0.01001 | 0.0111 | 0.01223 | 0.01337
m1 = 0.001548 | – | 0.006043 | 0.006974 | 0.007934 | 0.008938 | 0.009988 | 0.01107 | 0.01219 | 0.01332
m1 = 0.001921 | – | 0.006045 | 0.006953 | 0.007912 | 0.008914 | 0.009962 | 0.01105 | 0.01216 | 0.01327
m1 = 0.002391 | – | 0.006033 | 0.006939 | 0.007896 | 0.008898 | 0.009943 | 0.01103 | 0.01213 | 0.01325
m1 = 0.003024 | – | 0.006025 | 0.006923 | 0.007876 | 0.008874 | 0.009917 | 0.011 | 0.0121 | 0.0132
m1 = 0.003744 | – | 0.006001 | 0.006901 | 0.007852 | 0.008827 | 0.009883 | 0.01096 | 0.01205 | 0.01315
m1 = 0.004567 | – | 0.00598 | 0.006877 | 0.007823 | 0.008811 | 0.009845 | 0.01092 | 0.01202 | 0.01313
m1 = 0.005591 | 997.307 | 0.005949 | 0.006841 | 0.007783 | 0.008767 | 0.009794 | 0.01086 | 0.01196 | 0.01306
m1 = 0.1222 | 1002.23 | – | – | – | – | – | – | – | –
